The values below come from US9469615B2, “Quinoxalines and AZA-quinoxalines as CRTH2 receptor modulators” (Merck Sharp & Dohme Corp., priority 2010, dated 2016).

This experiment addresses T1, hCRTH2 (Homo sapiens, UniProt Q9Y5Y4).
T1 construct: expressed in transfected cells; host or cells: HEK (human embryonic kidney) cells expressing hCRTH2; membrane preparation
T1 sequence (Q9Y5Y4 1-395): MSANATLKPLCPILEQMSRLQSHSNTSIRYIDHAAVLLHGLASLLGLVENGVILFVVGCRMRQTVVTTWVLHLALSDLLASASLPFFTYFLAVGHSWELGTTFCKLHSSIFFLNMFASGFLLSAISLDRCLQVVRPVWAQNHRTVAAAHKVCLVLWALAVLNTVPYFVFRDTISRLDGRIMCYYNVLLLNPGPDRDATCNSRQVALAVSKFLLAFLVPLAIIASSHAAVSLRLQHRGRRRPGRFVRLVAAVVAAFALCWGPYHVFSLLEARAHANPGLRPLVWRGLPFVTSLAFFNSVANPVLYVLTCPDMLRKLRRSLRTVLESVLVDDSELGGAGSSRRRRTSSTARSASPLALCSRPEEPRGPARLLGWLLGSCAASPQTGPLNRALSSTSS
Briefly: Radioligand binding assay ([3H]PGD2 competition, HEK-hCRTH2 membranes). The conditions noted are these: [3H]PGD2 competition, Table B. In short, it runs like this: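 Competition binding with 3.0 nM [3H]PGD2 and 8-20 μg HEK-hCRTH2 membrane protein in 50 mM Tris-HCl pH 7.4, 1 mM EDTA, 2 mM MnCl2, 1% Me2SO, 60 min at room temperature. Nonspecific binding defined with 10 μM PGD2; bound radioactivity counted after filtration.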
Consider `C[C@H](NC(=O)c1ccc2nc(-c3ccc(Cl)cc3)c(CCc3cc(F)cc(CC(=O)O)c3)nc2c1)c1ccc(F)cc1` [compound 450, (S)-2-(3-(2-(3-(4-chlorophenyl)-7-((1-(4-fluorophenyl)ethyl)carbamoyl)quinoxalin-2-yl)ethyl)-5-fluorophenyl)acetic acid], for which the Ki is 2.1 to 20 nM. In turn, `N#Cc1ccc(CNC(=O)c2ccc3nc(-c4ccc(Cl)cc4)c(CCc4cc(F)cc(CC(=O)O)c4)nc3c2)cc1` [compound 451, 2-(3-(2-(3-(4-chlorophenyl)-7-((4-cyanobenzyl)carbamoyl)quinoxalin-2-yl)ethyl)-5-fluorophenyl)acetio acid] came in with an inhibitory constant (Ki) of 2.1 to 20 nM. `O=C(O)Cc1cc(F)cc(CCc2nc3cc(C(=O)N4CC(c5ccc(F)c(F)c5)C4)ccc3nc2-c2ccc(Cl)cc2)c1` [compound 452, 2-(3-(2-(3-(4-chlorophenyl)-7-(3-(3,4-difluorophenyl)azetidine-l-carbonyl)quinoxalin-2-yl)ethyl)-5-fluorophenyl) aceticacid] returned a Ki of 2.1 to 20 nM. Then `CC(CCCc1nc2cc(C(=O)N[C@@H]3CCCc4ccccc43)ccc2nc1-c1ccccc1)C(=O)O` (stereo partly drawn) [compound 453, 2-methyl-5-(3-phenyl-7-(((R)-1-yl)carbamoyl)quinoxalin-2-yl)pentanoic acid], with 2.1 to 20 nM. Then `CC(CCCc1nc2cc(C(=O)N[C@@H]3CCCc4ccccc43)ccc2nc1-c1ccc(F)cc1)C(=O)O` (some centres unmarked) [compound 454], with 2.1 to 20 nM; and `CC(CCCc1nc2cc(C(=O)N[C@@H]3CCCc4cc(Cl)ccc43)ccc2nc1-c1ccc(F)cc1)C(=O)O` (stereo partly drawn) [compound 455, 5-(7-(((R)-6-chloro-1,2,3,4-tetrahydronaphthalen-1-yl)carbamoyl)-3-(4-fluorophenyl)quinoxalin-2-yl)-2-methylpentanoic acid], with 2.1 to 20 nM.

Compound `CC(CCCc1nc2cc(C(=O)N[C@@H]3CCc4cc(Cl)ccc43)ccc2nc1-c1ccc(F)cc1)C(=O)O` (stereo partly drawn) [compound 456, 5-(7-(((R)-5-chloro-2,3-dihydro-1H-inden-1-yl)carbamoyl)-3-(4-fluorophenyl)quinoxalin-2-yl)-2-methylpentanoic acid] showed an inhibition constant Ki of 2.1 to 20 nM.

`CC(CCCc1nc2cc(C(=O)N[C@@H]3CCc4cc(F)ccc43)ccc2nc1-c1ccc(F)cc1)C(=O)O` (stereo partly drawn) [compound 457, 5-(7-(((R)-5-fluoro-2,3-dihydro-1H-inden-1-yl)carbamoyl)-3-(4-fluorophenyl)quinoxalin-2-yl)-2-methylpentanoic acid] had a Ki of 0.1 to 2 nM. In turn, `CC(CCCc1nc2cc(C(=O)N[C@@H]3CCCc4cc(Cl)ccc43)ccc2nc1-c1ccccc1)C(=O)O` (stereo partly drawn) [compound 458, 5-(7-(((R)-6-chloro-1,2,3,4-tetrahydronaphthalen-1-yl)carbamoyl)-3-phenylquinoxalin-2-yl)-2-methylpentanoic acid] gave a Ki of 2.1 to 20 nM. For the compound `CC(CCCc1nc2cc(C(=O)N[C@@H]3CCCc4cc(F)ccc43)ccc2nc1-c1ccccc1)C(=O)O` (stereo partly drawn) [compound 459, 5-(7-(((R)-6-fluoro-1,2,3,4-tetrahydronaphthalen-1-yl)carbamoyl)-3-phenylquinoxalin-2-yl)-2-methylpentanoic acid], the inhibitory constant (Ki) was in the range of 2.1 to 20 nM. Consider `CC(CCCc1nc2cc(C(=O)N[C@H](C)c3ccc(Cl)cc3)ccc2nc1-c1ccccc1)C(=O)O` (stereo partly drawn) [compound 460, 5-(7-(((R)-1-(4-chlorophenyl)ethyl)carbamoyl)-3-3-phenylquinoxalin-2-yl)-2-methylpentanoic acid], for which the Ki is 2.1 to 20 nM. Then `CC(CCCc1nc2cc(C(=O)N[C@H](C)c3ccc(F)cc3)ccc2nc1-c1ccccc1)C(=O)O` (stereo partly drawn) [compound 461, 5-(7-(((R)-1-(4-fluorophenyl)ethyl)carbamoyl)-3-phenylquinoxalin-2-yl)-2-methylpentanoic acid], with 2.1 to 20 nM.

As for `CC(CCCc1nc2cc(C(=O)N3CCN(c4ccccc4)CC3)ccc2nc1-c1ccccc1)C(=O)O` (centres unmarked) [compound 462, 2-methyl-5-(3-phenyl-7-(4-phenylpiperazine-1-carbonyl)quinoxalin-2-yl)pentanoic acid], the Ki was in the range of 2.1 to 20 nM. `CC(CCCc1nc2cc(C(=O)N[C@@H]3C[C@H]3c3ccccc3)ccc2nc1-c1ccccc1)C(=O)O` (stereo partly drawn) [compound 463, 2-methyl-5-(3-phenyl-7-(((1R,2S)-2-phenylcyclopropyl)carbamoyl)quinoxalin-2-yl) pentanoic acid] returned a Ki of 2.1 to 20 nM. Then `C[C@@H](NC(=O)c1ccc2nc(-c3ccccc3)c(CCCC(F)(F)C(=O)O)nc2c1)c1ccc(Cl)cc1` [compound 464, (R)-5-(7-((1-(4-chlorophenyl)ethyl)carbamoyl)-3-phenylquinoxalin-2-yl)-2,2-difluoropentanoic acid], with 20.1 to 200 nM; and `O=C(N[C@@H]1CCCc2cc(F)ccc21)c1ccc2nc(-c3ccc(F)cc3)c(CCCC(F)(F)C(=O)O)nc2c1` [compound 465, (R)-2,2-difluoro-5-(7-((6-fluoro-1,2,3,4-tetrabydronaphthalen-1-yl)carbamoyl)-3-(4-fluorophenyl)quinoxalin-2-yl)pentanoic acid], with 2.1 to 20 nM; and `O=C(N[C@@H]1CCCc2ccccc21)c1ccc2nc(-c3ccccc3)c(CCCC(F)(F)C(=O)O)nc2c1` [compound 466, (R)-2,2-difluoro-5-(3-phenyl-7-((1,2,3,4-tetahydronaphthalen-1-yl)carbamoyl)quinoxalin-2-yl)pentanoic acid], with 2.1 to 20 nM. In turn, `O=C(N[C@@H]1CCCc2cc(Cl)ccc21)c1ccc2nc(-c3ccccc3)c(CCCC(F)(F)C(=O)O)nc2c1` [compound 467, (R)-5-(7-((6-chloro-1,2,3,4-tetrahydronaphthalen-1-yl)carbamoyl)-3-phenylquinoxalin-2-yl)-2,2-difluoropentanoic acid] had an inhibitory constant (Ki) of 2.1 to 20 nM.

In turn, `O=C(N[C@@H]1CCc2cc(F)ccc21)c1ccc2nc(-c3ccccc3)c(CCCC(F)(F)C(=O)O)nc2c1` [compound 468, (R)-2,2-difluoro-5-(7-((5-fluoro-2,3-dihydro-1H-inden-1-yl)carbamoyl)-3-phenylquinoxalin-2-yl)pentanoic acid] showed a Ki of 2.1 to 20 nM. Take `O=C(N[C@H](c1ccc(F)cc1)C(F)(F)F)c1ccc2nc(-c3ccccc3)c(CCCC(F)(F)C(=O)O)nc2c1` [compound 469, (R)-2,2-difluoro-5-(3-phenyl-7-((2,2,2-trifluoro-1-(4-fluorophenyl)ethyl)carbamoyl)quinoxalin-2-yl)pentanoic acid]: the inhibition constant (Ki) was 201 to 700 nM. For `O=C(c1ccc2nc(-c3ccccc3)c(CCCC(F)(F)C(=O)O)nc2c1)N1CCN(c2ccccc2)CC1` [compound 470, 2,2-difluoro-5-(3-phenyl-7-(4-phenylpiperazine-1-carbonyl)quinoxalin-2-yl)pentanoic acid], the inhibitory constant (Ki) lay within 20.1 to 200 nM. With `C[C@@H](NC(=O)c1ccc2nc(-c3ccc(F)cc3)c(CCCCC(=O)O)nc2c1)c1ccc(F)cn1` [compound 471, (R)-5-(3-(4-fluorophenyl)-7-((1-(5-fluoropyridin-2-yl)ethyl)carbamoyl)quinoxalin-2-yl)pentanoic acid], the inhibition constant (Ki) lay in the range of 2.1 to 20 nM. In turn, `C[C@H](NC(=O)c1ccc2nc(-c3ccc(F)cc3)c(CCCCC(=O)O)nc2c1)c1ccc(F)cn1` [compound 472, (S)-5-(3-(4-fluorophenyl)-7-((1-(5-fluoropyridin-2-yl)ethyl)carbamoyl)quinoxalin-2-yl)pentanoic acid] registered an inhibition constant (Ki) of 20.1 to 200 nM.

`C[C@@H](NC(=O)c1ccc2nc(-c3ccccc3)c(CCCCC(=O)O)nc2c1)c1ccc(F)cn1` [compound 473, (R)-5-(7-((1-(5-fluoropyridin-2-yl)ethyl)carbamoyl)-3-phenylquinoxalin-2-yl)pentanoic acid] registered an inhibition constant Ki of 2.1 to 20 nM. In turn, `C[C@H](NC(=O)c1ccc2nc(-c3ccccc3)c(CCCCC(=O)O)nc2c1)c1ccc(F)cn1` [compound 474, (S)-5-(7-((1-(5-fluoropyridin-2-yl)ethyl)carbamoyl)-3-phenylquinoxalin-2-yl)pentanoic acid] displayed an inhibition constant (Ki) of 2.1 to 20 nM. Turning to `O=C(N[C@@H]1CCCc2cc(Cl)ccc21)c1ccc2nc(-c3ccc(F)cc3)c(CCCC(F)(F)C(=O)O)nc2c1` [compound 475, (R)-5-(7-((6-chloro-1,2,3,4-tetrahydronaphthalen-1-yl)carbamoyl)-3-(4-fluorophenyl)quinoxalin-2-yl)-2,2-difluoropentanoic acid], the Ki was 2.1 to 20 nM.

On to `O=C(N[C@@H]1CCc2cc(F)ccc21)c1ccc2nc(-c3ccc(F)cc3)c(CCCC(F)(F)C(=O)O)nc2c1` [compound 476, (R)-2,2-dilluoro-5-(7-((5-fluoro-2,3-dihydro-1H-inden-1-yl)carbamoyl)-3-(4-fluorophenyl)quinoxalin-2-yl)pentanoic acid], for which the Ki fell in the range of 20.1 to 200 nM. Regarding `C[C@H](CCCc1nc2cc(C(=O)N[C@@H]3CCCc4ccccc43)ccc2nc1-c1ccc(F)cc1)C(=O)O` [compound 477, (R)-5-(3-(4-fluorophenyl)-7-(((R)-1,2,3,4-tetrahydronaphthalen-1-yl)carbamoyl)quinoxalin-2-yl)-2-methylpentanoic acid], the inhibition constant (Ki) was in the range of 2.1 to 20 nM.

Compound `C[C@H](CCCc1nc2cc(C(=O)N[C@H]3CCCc4ccccc43)ccc2nc1-c1ccc(F)cc1)C(=O)O` [compound 478, (R)-5-(3-(4-fluorophenyl)-7-(((S)-1,2,3,4-tetrahydronaphthalen-1-yl)carbamoyl)quinoxalin-2-yl)-2-methylpentanoic acid] returned an inhibitory constant (Ki) of 20.1 to 200 nM.

As usually defined, the Ki is a dissociation constant, usually derived from enzyme kinetics or from competition with a known ligand. A higher Ki goes with lower affinity.
